Measured values published in US5789589A, “Guanine analog phosphates” (Drug Innovation & Design, Inc., priority 1996, dated 1998).

Key:
[1] = test system: HSV-1; experiment: Dermal HSV-1 infection in guinea pigs, topical treatment; assay type: in vivo, Female Hartley outbred guinea pigs; conditions: for Comparison with U.S. ZOVIRAX in all three efficacy parameters: Mann-Whitney test, p=0.0008, 0.0008, 0.001; for Reduction in lesion number (in words): guinea pigs with dermal HSV-1 lesions, compared to vehicle; for Lesion Number, % Diff vs placebo / Lesion virus titer, % Diff vs placebo / Total Lesion Area, % Diff vs placebo: positive value = reduction vs vehicle, p=0.012; for Lesion virus titer, mean: skin taken Day 4, plaque formation in VERO cells; for Lesion Number, mean: prodrug cream (1.2% Prodrug 1 or 1.87% Prodrug 2) 2x/day on Days 1, 2 and 3
Procedure: The formulation for Prodrugs 1 and 2 contained 5% EL-620 EMULPHOR (polyoxyethylated castor oil) (Rhone Poluenc), 5% CARBOPOL (Carboxypolymethylene, sodium salt) (B.F. Goodrich), 10% ethanol and 1.2% by weight Prodrug 1 (or 1.87% by weight Prodrug 2). The balance of the formulation consisted of water.
EL-620 EMULPHOR and water were mixed and ultrasonicated to give a clear emulsion, to which the ethanol was added. The prodrug was then added, and the mixture was ultrasonicated to give an opalescent emulsion. The sodium carbopol was then added to the emulsion and mixed until to homogeneity.
The placebo was prepared identically to the pharmaceutical compositions except that the prodrugs were omitted.
Female Hartley outbred guinea pigs, 400 to 450 grams, were obtained from Charles River Breeding Labs, Wilmington, Mass. Animals were anesthetized with 25 mg/kg ketamine and 5 mg/kg xylazine SQ. Hair on the dorsum from the shoulders to the rump was removed with electric clippers followed by two 5-10 minute applications of a chemical depilatory. A grid of four areas was demarcated with a pen on both sides of the spine at levels corresponding to mid back and rump.
Undiluted HSV-1 virus stock (0.035 ml) was applied to each different area and introduced through the skin at well-spaced sites at ten activations of a six-pronged spring-loaded vaccination instrument (Sterneedle, Pan Ray Division, Ormont Drug, Englewood, N.J.). The day of inoculation is Day 0. Approximately 250 mg of drug or placebo was applied to the areas according to the dosing regimen on Days 1, 2 and 3. Eight guinea pigs were used during the experiments allowing eight comparisons between each drug and its placebo. 5% ZOVIRAX ointment U.S.A. (Acyclovir) applied 4×/day was used as a control.
On Day 4 regrown hair on the dorsum of the guinea pigs was removed with one 3-4 minute application of a chemical depilatory. HSV lesions were counted and Polaroid pictures of the animals' backs were taken. The animals were sacrificed using CO2 gas and the full thickness skin of the back was removed by dissection. The square of the skin from each of the four treatment areas was placed into 15 mls of tissue culture medium with 2% FBS in an ice bath. The samples were then homogenized in a stomacher Lab Blender 80 (Tekmar Co.). Debris was pelleted by centrifugation and the supernatants collected and frozen at -70 C. until assay for infectivity by plaque formation in VERO cells.
The mean and standard deviation for number of lesions, total lesion area and lesion virus titer were computed for each treatment pair. Paired data (drug/vehicle) were evaluated by the Wilcoxon signed-rank test using percent differences between log10 derivatives of mean lesions severity at drug-treated sites compared to the vehicle-treated sites.

[2] = test system: TK^+ HSV 1; experiment: In vitro antiviral activity (CPE) against TK^+ HSV-1 (BWVL#10186) in Vero cells; assay type: cell-based, Herpes type 1 virus (HSV-1), human clinical isolate; conditions: for EC50: Human alphaherpesvirus 1, TK^+ HSV 1, Vero cells, CPE, about 72 hours, read-out: ED50 (the source's name); for Activity compared with acyclovir (in words): in vitro, TK^+ HSV-1
Procedure: (§1) The following test were carried out essentially as described by Sidwell and Huffman (Sidwell, et al., App. Microbiol., 22:797-801 (1971)), and was used in the reports on the in vitro antiviral activity of ribavirin (Sidwell, et al. Science, 177:705-706 (1972); Huffman, et al., Antimicrob. Ag. Chemother., 3:235-241 (1973)).
(§2) Herpes type 1 virus (HSV-1), BWVL#10186, is a thymidine kinase positive (TK^+) human clinical isolate provided by Dr. M. Nixon Ellis, Burroughs Wellcome Co. (Research Triangle Park, N.C.). The BWVL#10168 strain of HSV-1 is a TK- patient isolate (resistant partner to 10186) that was also provided by Dr. Ellis. Both strains were prepared in Vero cells, ampuled, and frozen at -80° C. Antiviral testing was performed in Vero cells.
(§3) Vero (continuously passaged African green monkey kidney) was obtained from the American Type Culture Collection (ATCC) (Rockville, Md.). Growth medium was Medium 199, 5% FBS and 0.1% NaHCO3. Test medium was Eagle's minimum essential medium with non-essential amino acids (MEM), with 2% FBS, 0.18% NaHCO3 and 50 μg gentamicin/ml. The growth medium contained no antibiotics.
(§4) Compounds were weighed and a sufficient amount added to DMSO (American Type Culture Collection, Rockville, Md.) to prepare a solution at 20 mg/ml.
(§5) Cells were seeded to 96-well flat-bottomed tissue culture plates (Corning Glass Works, Corning, N.Y.), 0.2 ml/well, at the proper cell concentration, and incubated overnight at 37° C. in order to establish cell monolayers. The growth medium was decanted and the various dilutions of test compound were added to each well (4 wells/dilution, 0.1 ml/well). Compound diluent medium was added to cell and virus control wells (0.1 ml/well). Virus, diluted in test medium, was added to compound test wells (3 wells/dilution of compound) and to virus control wells at 0.1 ml/well. Virus was added approximately 5 minutes after compound. Test medium without virus was added to all toxicity control wells (1 well/dilution of each test compound) and to cell control wells at 0.1 ml/well. The plates were sealed with plastic wrap (SARAN™) and incubated at 37° C. in a humidified incubator with 5% CO2, 95% air atmosphere until virus control had adequate cytopathic effect (CPE) readings. This was usually achieved after 72 hours. Cells were then examined microscopically for CPE, this being scored from 0 (normal cells) to 4 (maximal, 100%, CPE). The cells in the toxicity control wells were observed microscopically for morphologic changes attributed to cytotoxicity. This cytotoxicity was graded as: T (assigned 100% toxicity), PVH (assigned 80% cytotoxicity), PH (assigned 60% cytotoxicity), P (assigned 40% cytotoxicity), PSI (assigned 20% cytotoxicity), and 0 (normal cells). The 50% effective dose (ED50) and 50% cytotoxic dose (CD50) were calculated by regression analysis of the virus CPE data and the toxicity control data, respectively.
(§6) A known active substance, acyclovir, was run in the same manner as above for each batch of compounds tested.

[3] = test system: TK^- HSV 1; experiment: In vitro antiviral activity (CPE) against TK^- acyclovir resistant HSV-1 (BWVL#10168) in Vero cells; assay type: cell-based, Herpes type 1 virus (HSV-1), patient isolate; conditions: for EC50: Human alphaherpesvirus 1, Vero, 72 h, read-out: ED50; for Activity relative to acyclovir (fold more active): in vitro, acyclovir resistant (TK^-) HSV-1
Procedure: as §1, §2, §3, §4, §5, §6

[4] = in vitro; assay type: cell-based; conditions: african green monkey, vero cells
Procedure: as §3, §4, §5

[5] = test system: Herpes Simplex Virus-1; experiment: Healing of vaginal lesions in mice caused by Herpes Simplex Virus-1; assay type: in vivo; conditions: topical application
[6] = test system: herpes simplex labialis; conditions: cited from earlier work
[7] = test system: pig liver esterase; experiment: Incubation with pig liver esterase in phosphate buffered D2O, NMR; assay type: in vitro ADME
[8] = prodrug cream 2x/day on Days 1, 2 and 3, assessed Day 4, n=8
[9] = prodrug cream 2x/day on Days 1, 2 and 3, n=8
[10] = prodrug cream 2x/day on Days 1, 2 and 3

SMILES | Comparison with U.S. ZOVIRAX in all three efficacy parameters [1] | Reduction in lesion number (in words) [1] | Lesion Number, median [1, 8] | Total Lesion Area, median [1, 8] [mm2] | Lesion virus titer, median [1, 9] | Lesion Number, % Diff vs placebo [1, 10] [%] | Lesion virus titer, % Diff vs placebo [1, 10] [%] | Total Lesion Area, % Diff vs placebo [1, 10] [%] | Lesion virus titer, mean [1, 9] | Lesion Number, mean ([1]; assessed Day 4, n=8) | EC50 [2] [µM] | Activity compared with acyclovir (in words) [2] | EC50 [3] [µM] | Activity relative to acyclovir (fold more active) [3] | CC50 [4] [µg/mL] | Healing of vaginal lesions [5] | Effectiveness of oral administration in treatment of cold sores ([6]; oral) | Response of cold sores to topical treatment ([6]; topical) | Total Lesion Area, mean [1, 8] [mm2] | Degradation by pig liver esterase [7]
COC(=O)CC(OP(=O)(OCCOCn1cnc2c(=O)[nH]c(N)nc21)OC(CC(=O)OC)c1ccc(OC(=O)C(C)(C)C)cc1)c1ccc(OC(=O)C(C)(C)C)cc1 (stereo not drawn) [Prodrug 2] | worked significantly better than U.S. ZOVIRAX in all three of the efficacy parameters measured | dramatic reduction in lesion number | 36.0 | 109 | 3.12 log (pfu/ml) | 35 | 97 | 57 | 2.87 log (pfu/ml) | 37 | 6.3 | same order of magnitude as acyclovir | 7.5 | about 5 × | > 100 | effective in promoting the healing of vaginal lesions in mice |  |  |  | 
Nc1nc2c(ncn2COCCO)c(=O)[nH]1 [Acyclovir, acyclovir, reference compound] |  |  |  |  |  |  |  |  |  |  | 1.4 |  | 35 |  | > 100 |  | only partially effective | do not respond to the topical treatment |  | 
COC(=O)CC(O[PH](=O)OCCOCn1cnc2c(=O)[nH]c(N)nc21)c1ccc(OC(=O)C(C)(C)C)cc1 (stereo not drawn) [Prodrug 3] |  |  |  |  |  |  |  |  |  |  | 5.5 | same order of magnitude as acyclovir | 37 |  | > 100 |  |  |  |  | 
COC(=O)CC(OP(=O)(OCCOCn1cnc2c(=O)[nH]c(N)nc21)OC(CC(=O)OC)c1ccc(OC(C)=O)cc1)c1ccc(OC(C)=O)cc1 (stereo not drawn) [Prodrug 1] | worked significantly better than U.S. ZOVIRAX in all three of the efficacy parameters measured | dramatic reduction in lesion number | 32.0 | 107 | 3.17 log (pfu/ml) | 45 | 96 | 59 | 3.07 log (pfu/ml) | 32 | 4.6 | same order of magnitude as acyclovir | 17 | about 2 × | > 100 |  |  |  | 106 | degraded to acyclovir monophosphate and p-hydroxycinnamic
